Values quoted from earlier work, collected in patent US20040086873A1, “System and method of generating and storing correlated hyperquantified tissue structure and biomolecular expression datasets” (priority 2002, published 2004).

Details: 1000 mg/kg/day, intraperitoneal injection once a day, dissolved in corn oil (~15% v/v)

Structure (SMILES): ClC(Cl)(Cl)Cl [CC14]
- toxicity of the dose level (hepatotoxic / lethal): hepatotoxic but not lethal
